One experiment concerns encephalitogenic T cells. The experiment can be described thus: Generation of encephalitogenic T cells in GTB-treated donor mice, adoptive transfer. The class given is in vivo. The following applies: donor mice treated with GTB 50 mg/kg body wt/d orally from day of MBP immunization; vs untreated or vehicle-treated donors; FIG. 2.
In experiment [1] the test system is blood-brain barrier and blood-spinal cord barrier. The experiment can be described thus: Integrity of BBB and BSB, infrared dye (Alexa-680) entry into CNS of EAE mice. The class given is in vivo. An excerpt:
BBB and BSB are membranic structures that act primarily to protect the brain and the spinal cord, respectively from chemicals in the blood, while still allowing some essential molecules to enter. It is known that during active MS and EAE, BBB and BSB break down in a section of the brain and spinal cord, respectively due to widespread inflammation thereby allowing different blood molecules and toxins enter into the CNS. Therefore, the inventor investigated if GTB treatment modulated the integrity of BBB and BSB. The inventor injected an infrared dye (Alexa-680) via tail-vein and 2 h after the injection, live mice were scanned in an Odyssey infra-red scanner. As evidenced from FIG. 3A (first lane), infra-red signals were not visible on areas over the brain and the spinal cord in control HBSS-injected mice. […] In FIG. 3C, the top row relates to the frontal cortex, the middle row relates to the midbrain, and the last row relates to the cerebellum. In FIG. 3D, the first column relates to the control, the second column relates to EAE, the third column relates to EAE+GTB, the fourth column relates to EAE+Vehicle, and the y-axis is density of infrared signal.

The test system of a further experiment is spinal cord of EAE mice. The experiment in a line: H&E histology, infiltration of inflammatory cells and cuffed vessels in spinal cord of EAE mice. The following applies: GTB from 8 dpt, sacrificed 16 dpt. The class given is in vivo. An excerpt:
On 14 dpi (first chronic phase), five mice from each of the following groups (control, EAE, EAE+GTB, and EAE+vehicle) were anesthetized. After perfusion with phosphate buffered saline (PBS) (pH 7.4) and then with 4% (w/v) paraformaldehyde solution in PBS, cerebellum and whole spinal cord was dissected out from each mouse. The tissues were further fixed and then divided into halves: one-half was used for histological staining whereas the other half was used for myelin staining. For histological analysis, routine histology was performed to obtain perivascular cuffing and morphological details of CNS tissues of EAE mice. Paraformaldehyde-fixed tissues were embedded in paraffin, and serial sections (4 μm) were cut. Sections were stained with conventional H&E staining method. Digital images were collected under bright-field setting using an ×40 objective. Slides were assessed in a blinded fashion by three examiners for inflammation in different anatomical compartments (meninges and parenchyma). Inflammation was scored using the following scale as described: for meninges and parenchyma: 0, no infiltrating cells; 1, few infiltrating cells; 2, numerous infiltrating cells; and 3, widespread infiltration. For vessels: 0, no cuffed vessel; 1, one or two cuffed vessels per section; 2, three to five cuffed vessels per section and 3, more than five cuffed vessels per section. At least six serial sections of each spinal cord from each of five mice per group were scored and statistically analyzed by ANOVA.
Infiltration of autoreactive T cells and associated mononuclear cells is a hallmark of EAE as well as MS. The inventor examined whether GTB treatment attenuated infiltration and inflammation in adoptively-transferred EAE mice. Mice receiving GTB from 8 dpt (onset of the acute phase) were sacrificed on 16 dpt. […] In contrast, vehicle was unable to inhibit the infiltration of inflammatory cells (FIG. 4A).

The next experiment concerns iNOS. The experiment can be described thus: Expression of iNOS in spinal cord of EAE mice (RT-PCR). It is filed as in vivo. The following applies: FIG. 4D-F. On the procedure:
(§1) Total RNA was isolated from splenic T cells and spinal cord by using the RNeasy mini kit (Qiagen, Valencia, Calif.) and from spleen and cerebellum by using the Ultraspec-II RNA reagent (Biotecx laboratories, Inc, Houston, Tex.) following manufacturer's protocol. To remove any contaminating genomic DNA, total RNA was digested with DNase. Semi-quantitative RT-PCR was carried out using a RT-PCR kit from Clonetech (Mountain View, Calif.). Briefly, 1 μg of total RNA was reverse transcribed using oligo(dT)12-18 as primer and MMLV reverse transcriptase (Clontech) in a 20 μL reaction mixture. The resulting cDNA was appropriately-diluted, and diluted cDNA was amplified using Titanium Taq DNA polymerase and following primers. Amplified products were electrophoresed on a 1.8% agarose gels and visualized by ethidium bromide staining.
(§2) The relative expression of each gene with respect to GAPDH was measured after scanning the bands with a Fluor Chem 8800 Imaging System (Alpha Innotech, San Leandro, Calif.).
(§3) Real-time PCR analysis was performed using the ABI-Prism7700 sequence detection system (Applied Biosystems, Foster City, Calif.). […] Data were processed by the ABI Sequence Detection System 1.6 software and analyzed by ANOVA. […]

The subject of the next experiment is IL-1β. The experiment in a line: Expression of IL-1β in spinal cord of EAE mice (RT-PCR). The class given is in vivo. As to conditions: FIG. 4D-F. Here is the method: as §1, §2, §3
For experiment [2], the system named is myelin basic protein (MBP). The experiment can be described thus: Myelin gene mRNA expression in spinal cord of EAE mice: MBP. The class given is in vivo. As to conditions: FIG. 5C-E. On the procedure: (§4) Total RNA was isolated from splenic T cells and spinal cord by using the RNeasy mini kit (Qiagen, Valencia, Calif.) and from spleen and cerebellum by using the Ultraspec-II RNA reagent (Biotecx laboratories, Inc, Houston, Tex.) following manufacturer's protocol. To remove any contaminating genomic DNA, total RNA was digested with DNase. Semi-quantitative RT-PCR was carried out using a RT-PCR kit from Clonetech (Mountain View, Calif.). Briefly, 1 μg of total RNA was reverse transcribed using oligo(dT)12-18 as primer and MMLV reverse transcriptase (Clontech) in a 20 μL reaction mixture. […]
as §2
(§5) Real-time PCR analysis was performed using the ABI-Prism7700 sequence detection system (Applied Biosystems, Foster City, Calif.). […] Data were processed by the ABI Sequence Detection System 1.6 software and analyzed by ANOVA.
(§6) Demyelination is the most important pathological feature in MS, which is also modeled in EAE animals. […] To confirm this finding, the inventor monitored the expression of […] myelin genes, myelin basic protein (MBP) and proteolipid protein (PLP), and observed a marked loss of mRNA expression of these genes in the spinal cord of untreated EAE mice compared to control mice (FIG. 5C-E).

The test system of experiment [3] is proteolipid protein (PLP). The experiment in a line: Myelin gene mRNA expression in spinal cord of EAE mice: PLP. It is filed as in vivo. As to conditions: FIG. 5C-E. On the procedure: as §4, §2, §5, §6
The next experiment has as its system DJ-1. The experiment in a line: MPTP mouse model of PD, Western blot of DJ-1 in the nigra. The class given is in vivo, mice. As to conditions: oral GTB in MPTP-intoxicated mice, dose-dependent; FIG. 9A-B. On the procedure:
Six- to eight-week old C57BL/6 mice were purchased from Harlan (Indianapolis, Ind.). For acute MPTP intoxication, mice received four intraperitoneal (i.p.) injections of MPTP-HCl (18 mg/kg of free base; Sigma Chemical Co., St. Louis, Mo.) in saline at 2-h intervals. Control animals received only saline.
GTB was mixed in 0.5% methylcellulose (MC) and from 3 h after the last injection of MPTP, mice were gavaged 100 μL GTB-mixed MC once daily using gavage needle. Therefore, control MPTP mice received only MC as vehicle.
Immunoblot analysis for DJ-1 and TH was carried out. Briefly, cell homogenates were electrophoresed, proteins were transferred onto a nitrocellulose membrane, and bands were visualized with an Odyssey infrared scanner after immunolabeling with respective primary antibodies followed by infra-red fluorophore-tagged secondary antibody (Invitrogen).
Upregulation and/or maintenance of PD-related beneficial protein such as DJ-1 in the nigra during neurodegenerative insults may have therapeutic efficacy in PD.

Here are results for 1 compound from patent US9968582B2, “Use of a benzoate containing composition in urea cycle disorders and neurodegenerative disorders” (Rush University Medical Center, priority 2014, dated 2018).

With `O=C(OCC(COC(=O)c1ccccc1)OC(=O)c1ccccc1)c1ccccc1` [GTB, glyceryl tribenzoate], in the experiment on encephalitogenic T cells, the “clinical symptoms and disease severity of recipient mice” value was “significantly reduced clinical symptoms and disease severity”. The “entry of infra-red dye into the CNS, live mice” value in experiment [1] (scan 2 h after tail-vein injection of Alexa-680, FIG. 3A) is on record as “strongly inhibited the entry of infra-red dye into the CNS”. For the same compound, in experiment [1] (spinal cord, frontal cortex, midbrain, cerebellum, FIG. 3B-D), the “entry of infra-red dye into spinal cord and parts of the brain, dissected tissue” value is “markedly attenuated the entry of infra-red dye”. In addition, in the experiment with spinal cord of EAE mice (FIG. 4A), the “infiltration of inflammatory cells into the spinal cord (H&E)” value was “markedly inhibited the infiltration of inflammatory cells”. Besides, the quantitation of infiltration entry in the experiment on spinal cord of EAE mice (FIG. 4B) was “dramatically reduced infiltration”. Further, the “appearance of cuffed vessels” value with spinal cord of EAE mice (FIG. 4C) is “dramatically reduced”. Further, the “expression of iNOS in the spinal cord” value with iNOS is “dramatically reduced the expression”. Besides, the “expression of IL-1β in the spinal cord” value in the experiment on IL-1β is recorded as “dramatically reduced the expression”. Further, the “MBP mRNA expression in the spinal cord” value in experiment [2] is “significant restoration of myelin gene mRNA expression”. In experiment [3], the “PLP mRNA expression in the spinal cord” value is on record as “significant restoration of myelin gene mRNA expression”. The “level of DJ-1 in the nigra” value with DJ-1 is “protected DJ-1 in the nigra”.
